Source: PubChem BioAssay AID330 (DTP/NCI, 2004)
Values joined by “and” are separate entries in the source; they are usually repeats but may differ in a detail not shown here. Equal values may be shown once. Toxic doses and inconclusive results are not listed. The calls were made as follows: active = survival T/C of 150% or more; inactive = T/C below 125% in these data.

Tested on: P388 leukemia ip, CD2F1 mice, survival T/C
Test: NCI In Vivo Anticancer Drug Screen. Data for tumor model P388 Leukemia (intraperitoneal) in CD2F1 (CDF1) mice
Details: endpoint: median survival time, higher = longer survival
Outline: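 Mice carrying the transplanted tumor received test compound or vehicle. Survival was recorded in each group, and the value is the treated-group measurement divided by that of the vehicle-treated control group.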

[1] = dose: 50.0 mg/kg/injection, schedule: Q01DX005 (ip), vehicle: Klucel (hydroxypropylcellulose) (HPC)
[2] = dose: 100.0 mg/kg/injection, schedule: Q01DX005 (ip), vehicle: Klucel (hydroxypropylcellulose) (HPC)
[3] = dose: 200.0 mg/kg/injection, schedule: Q01DX005 (ip), vehicle: Klucel (hydroxypropylcellulose) (HPC)
[4] = dose: 50.0 mg/kg/injection, schedule: Q01DX009 (ip), vehicle: Klucel (hydroxypropylcellulose) (HPC)
[5] = dose: 12.5 mg/kg/injection, schedule: Q01DX009 (ip), vehicle: distilled water + Tween-80
[6] = dose: 25.0 mg/kg/injection, schedule: Q01DX009 (ip), vehicle: distilled water + Tween-80
[7] = dose: 50.0 mg/kg/injection, schedule: Q01DX009 (ip), vehicle: distilled water + Tween-80
[8] = dose: 6.25 mg/kg/injection, schedule: Q01DX005 (ip), vehicle: Klucel (hydroxypropylcellulose) (HPC)
[9] = dose: 12.5 mg/kg/injection, schedule: Q01DX005 (ip), vehicle: Klucel (hydroxypropylcellulose) (HPC)
[10] = dose: 25.0 mg/kg/injection, schedule: Q01DX005 (ip), vehicle: Klucel (hydroxypropylcellulose) (HPC)
[11] = dose: 100.0 mg/kg/injection, schedule: Q01DX009 (ip), vehicle: saline with Tween-80
[12] = dose: 200.0 mg/kg/injection, schedule: Q01DX009 (ip), vehicle: saline with Tween-80
[13] = dose: 60.0 mg/kg/injection, schedule: Q01DX005 (ip), vehicle: saline with Tween-80

Measured: T/C

C=C1C(=O)OC2CC3(C)OC3CCC3(C)OC3CC12 (stereo not drawn)
inactive: dose: 7.75 mg/kg/injection, schedule: Q01DX005 (ip), vehicle: Klucel (hydroxypropylcellulose) (HPC) 105 % of control | dose: 15.5 mg/kg/injection, schedule: Q01DX005 (ip), vehicle: Klucel (hydroxypropylcellulose) (HPC) 101 % of control | dose: 31.0 mg/kg/injection, schedule: Q01DX005 (ip), vehicle: Klucel (hydroxypropylcellulose) (HPC) 109 % of control | dose: 62.0 mg/kg/injection, schedule: Q01DX005 (ip), vehicle: Klucel (hydroxypropylcellulose) (HPC) 105 % of control

CCCCNC(=O)C(CONC(=O)OC)NC(C)=O (stereo not drawn)
inactive: [1] 101 % of control | [2] 97 % of control | [3] 101 % of control

COc1cccc(N=Nc2c(-c3ccccc3)nn(C(N)=S)c2-c2ccccc2)c1
inactive: dose: 100.0 mg/kg/injection, schedule: Q04DX002 (ip), vehicle: saline with Tween-80 98 % of control | dose: 200.0 mg/kg/injection, schedule: Q04DX002 (ip), vehicle: saline with Tween-80 95 % of control | dose: 400.0 mg/kg/injection, schedule: Q04DX002 (ip), vehicle: saline with Tween-80 88 % of control

O=C1c2ccccc2CCCC12OC2c1ccncc1 (stereo not drawn)
inactive: [4] 90 % of control | dose: 100.0 mg/kg/injection, schedule: Q01DX009 (ip), vehicle: Klucel (hydroxypropylcellulose) (HPC) 96 % of control | dose: 200.0 mg/kg/injection, schedule: Q01DX009 (ip), vehicle: Klucel (hydroxypropylcellulose) (HPC) 90 % of control

CC(=O)Oc1c([N+](=O)[O-])cccc1[N+](=O)[O-]
inactive: dose: 3.13 mg/kg/injection, schedule: Q01DX009 (ip), vehicle: distilled water + Tween-80 111 % of control | dose: 6.25 mg/kg/injection, schedule: Q01DX009 (ip), vehicle: clinical formulation 100 % of control | dose: 6.25 mg/kg/injection, schedule: Q01DX009 (ip), vehicle: distilled water + Tween-80 100 % of control and 112 % of control | dose: 12.5 mg/kg/injection, schedule: Q01DX009 (ip), vehicle: clinical formulation 103 % of control | [5] 107 % of control | dose: 25.0 mg/kg/injection, schedule: Q01DX009 (ip), vehicle: clinical formulation 108 % of control | [6] 107 % of control | [7] 109 % of control and 115 % of control | dose: 100.0 mg/kg/injection, schedule: Q01DX009 (ip), vehicle: distilled water + Tween-80 96 % of control

N=C(N)Cc1ccc(NC(=O)c2ccc(C(=O)Nc3ccc(CC(=N)N)cc3)cc2)cc1
inactive: dose: 9.37 mg/kg/injection, schedule: Q01DX001 (ip), vehicle: saline with Tween-80 120 % of control | dose: 18.75 mg/kg/injection, schedule: Q01DX001 (ip), vehicle: saline with Tween-80 120 % of control | dose: 37.5 mg/kg/injection, schedule: Q01DX001 (ip), vehicle: saline with Tween-80 115 % of control

N#CSCc1ccc(CSC#N)c(Cl)c1
inactive: dose: 1.56 mg/kg/injection, schedule: Q04DX003 (ip), vehicle: saline sonified 100 % of control | dose: 2.08 mg/kg/injection, schedule: Q01DX009 (ip), vehicle: saline with Tween-80 109 % of control | dose: 3.13 mg/kg/injection, schedule: Q01DX009 (ip), vehicle: saline with Tween-80 100 % of control | dose: 3.13 mg/kg/injection, schedule: Q04DX003 (ip), vehicle: saline sonified 104 % of control | dose: 4.69 mg/kg/injection, schedule: Q01DX009 (ip), vehicle: saline with Tween-80 118 % of control | dose: 6.25 mg/kg/injection, schedule: Q04DX003 (ip), vehicle: saline sonified 109 % of control

O=C1NC(=O)c2ccc3c4ccc5c6c(ccc(c7ccc1c2c73)c64)C(=O)N(c1ccccc1)C5=O
inactive: [8] 99 % of control | [9] 101 % of control and 94 % of control | [10] 107 % of control | [1] 93 % of control | [2] 95 % of control | [3] 88 % of control

CC(C)(C)c1ccc(OP(=S)(N/N=C/c2ccccc2O)Oc2ccc(C(C)(C)C)cc2)cc1
inactive: dose: 12.5 mg/kg/injection, schedule: Q01DX009 (ip), vehicle: saline with Tween-80 94 % of control | dose: 25.0 mg/kg/injection, schedule: Q01DX009 (ip), vehicle: saline with Tween-80 88 % of control | dose: 50.0 mg/kg/injection, schedule: Q01DX009 (ip), vehicle: saline with Tween-80 93 % of control and 95 % of control | [11] 95 % of control | [12] 95 % of control

COc1cccc([N+]([O-])=NC#N)c1
inactive: dose: 12.5 mg/kg/injection, schedule: Q04DX003 (ip), vehicle: Klucel (hydroxypropylcellulose) (HPC) 105 % of control | dose: 25.0 mg/kg/injection, schedule: Q04DX003 (ip), vehicle: Klucel (hydroxypropylcellulose) (HPC) 115 % of control | dose: 50.0 mg/kg/injection, schedule: Q04DX003 (ip), vehicle: Klucel (hydroxypropylcellulose) (HPC) 107 % of control and 90 % of control

COc1cc([C@@H]2c3cc(O)c(OC)cc3C[C@H]3C(=O)OC[C@@H]23)ccc1O
inactive: [1] 96 % of control | [2] 96 % of control | [3] 100 % of control

CC(Br)(C(Br)c1ccccc1)[N+](=O)[O-] (stereo not drawn)
inactive: dose: 25.0 mg/kg/injection, schedule: Q01DX009 (ip), vehicle: Klucel (hydroxypropylcellulose) (HPC) 110 % of control | [4] 108 % of control

Cc1[nH]n(-c2ccc(S(=O)(=O)O)cc2)c(=O)c1N=Nc1ccccc1
inactive: [13] 96 % of control | dose: 120.0 mg/kg/injection, schedule: Q01DX005 (ip), vehicle: saline with Tween-80 100 % of control | dose: 240.0 mg/kg/injection, schedule: Q01DX005 (ip), vehicle: saline with Tween-80 90 % of control

Oc1ccc(Cl)cc1CN1CCN(Cc2cc(Cl)ccc2O)CC1
inactive: dose: 15.0 mg/kg/injection, schedule: Q01DX005 (ip), vehicle: saline with Tween-80 100 % of control | dose: 30.0 mg/kg/injection, schedule: Q01DX005 (ip), vehicle: saline with Tween-80 97 % of control | [13] 89 % of control

COc1cc(C[C@H](CO)[C@H](CO)Cc2ccc3c(c2)OCO3)cc(OC)c1OC
inactive: dose: 12.5 mg/kg/injection, schedule: Q04DX002 (ip), vehicle: acetone 100 % of control | dose: 25.0 mg/kg/injection, schedule: Q04DX002 (ip), vehicle: acetone 102 % of control | dose: 50.0 mg/kg/injection, schedule: Q04DX002 (ip), vehicle: acetone 103 % of control

CCOC(=O)Cc1cc2cc(=O)[nH]cc2cc1C
inactive: [5] 94 % of control | [6] 93 % of control | [7] 90 % of control | dose: 200.0 mg/kg/injection, schedule: Q01DX009 (ip), vehicle: distilled water + Tween-80 87 % of control

O=S(=O)([O-])NC1CCCCC1.O=S(=O)([O-])NC1CCCCC1.[Hg+2].[Hg+2].[Hg+2].[O-2].[O-2]
inactive: dose: 0.5 mg/kg/injection, schedule: Q04DX003 (ip), vehicle: saline 96 % of control | dose: 1.0 mg/kg/injection, schedule: Q04DX003 (ip), vehicle: saline 100 % of control | dose: 2.0 mg/kg/injection, schedule: Q04DX003 (ip), vehicle: saline 100 % of control

O=C1Nc2ccccc2C12Nc1ccccc1S2 (stereo not drawn)
inactive: dose: 50.0 mg/kg/injection, schedule: Q01DX005 (ip), vehicle: saline with Tween-80 100 % of control | dose: 100.0 mg/kg/injection, schedule: Q01DX005 (ip), vehicle: saline with Tween-80 101 % of control | dose: 200.0 mg/kg/injection, schedule: Q01DX005 (ip), vehicle: saline with Tween-80 110 % of control

C[N+]1=P(C)(C)N=P(C)(C)[N+](C)=P(C)(C)N=P1(C)C
inactive: dose: 12.5 mg/kg/injection, schedule: Q01DX009 (ip), vehicle: saline 95 % of control | dose: 25.0 mg/kg/injection, schedule: Q01DX009 (ip), vehicle: saline 95 % of control | dose: 50.0 mg/kg/injection, schedule: Q01DX009 (ip), vehicle: saline 116 % of control and 95 % of control

CCCCCCC(O)CCCCCCCCCCC(N)=O (stereo not drawn)
inactive: [8] 99 % of control | [9] 96 % of control | [10] 94 % of control

CCOC(=O)c1c(C)c(C(=O)OCC)n(C)c1C=O
inactive: [11] 97 % of control | [12] 97 % of control | dose: 400.0 mg/kg/injection, schedule: Q01DX009 (ip), vehicle: saline with Tween-80 96 % of control
